Assay results as given in patent publication US20190381004A1, “PHOTOPROTECTIVE COMPOSITIONS CONTAINING MALASSEZIA-DERIVED COMPOUNDS AND/OR CHEMICAL ANALOGS THEREOF” (priority 2018, published 2019).
Where two headings read alike, the source gives them in different places.

Columns and labels:
[1] = target: T1, arylhydrocarbon receptor (AhR) (Homo sapiens, UniProt P35869); conditions: cited from earlier work
T1 sequence (P35869 11-848): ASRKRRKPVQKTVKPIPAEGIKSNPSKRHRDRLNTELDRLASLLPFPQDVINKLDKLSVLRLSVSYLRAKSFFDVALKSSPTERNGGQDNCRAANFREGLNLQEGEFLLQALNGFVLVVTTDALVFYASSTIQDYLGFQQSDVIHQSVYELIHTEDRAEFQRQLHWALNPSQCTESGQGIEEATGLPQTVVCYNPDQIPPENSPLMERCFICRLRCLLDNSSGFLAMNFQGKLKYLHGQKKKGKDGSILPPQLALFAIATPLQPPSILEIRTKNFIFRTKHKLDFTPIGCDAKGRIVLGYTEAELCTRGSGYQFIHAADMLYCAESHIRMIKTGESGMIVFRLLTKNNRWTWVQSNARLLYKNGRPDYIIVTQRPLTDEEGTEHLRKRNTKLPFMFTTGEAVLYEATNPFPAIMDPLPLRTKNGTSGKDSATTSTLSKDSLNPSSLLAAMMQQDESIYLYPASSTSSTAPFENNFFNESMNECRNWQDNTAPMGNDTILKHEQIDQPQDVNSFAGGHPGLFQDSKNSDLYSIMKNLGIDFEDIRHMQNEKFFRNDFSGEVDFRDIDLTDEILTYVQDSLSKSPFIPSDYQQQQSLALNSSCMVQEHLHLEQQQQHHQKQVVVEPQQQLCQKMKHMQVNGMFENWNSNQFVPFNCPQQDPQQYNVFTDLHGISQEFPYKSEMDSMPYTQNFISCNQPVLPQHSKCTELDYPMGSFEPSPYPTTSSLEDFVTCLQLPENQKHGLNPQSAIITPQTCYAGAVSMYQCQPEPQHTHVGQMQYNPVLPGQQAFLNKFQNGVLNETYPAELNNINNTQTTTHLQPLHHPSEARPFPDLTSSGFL

UV-induced erythema = test: In vivo photoprotection proof of concept: UVB irradiation of treated skin sites, erythema assessment; design: species or system human; conditions: one Skin Type IV subject
Text: The Malassezin 1% formulation used in this study contained the following ingredients: Water (aqua)—65.939%; Dimethyl isosorbide—20.000%; Olive Oil Glycereth-8 Esters—3.000%; Glycerin—2.991%; Coconut Alkanes—2.700%; Hydroxyethyl Acrylate/Sodium Acryloyldimethyl Taurate Copolymer—1.700%; Malassezin—1.000%; Pentylene Glycol—1.000%; Phenoxyethanol—0.640%; Coco-Caprylate/Caprate—0.300%; Caprylyl Glycol—0.200%; Chlorphenesin—0.160%; Sorbitan Isostearate—0.140%; Tocopherol—0.100%; Polysorbate 60-0.080%; and Disodium EDTA—0.050%.
A Skin Type IV […] was included in this Proof of Concept study.
A template of 6 squares was placed on the lower left back (1.5 cm×1.5 cm) of the test subject.
Twenty-four hours after irradiation, the subject returned for MED assessment.
A second right lower square was treated twice daily from day 4 to day 7, and a third medial square for one application on day 7. The product vehicle was applied for 7 days twice daily on the left back. The subject returned to the research center for irradiation on day 7. Each test site was irradiated with 120 mJ of UVB exposure. The subject returned in 24 hours for assessment of phototoxicity/photoprotection.
The subject continued the experiment, receiving Malassezin 1% for a total of 14 days. […]

[2] = cited from earlier work; for sun protection factor (SPF): cream
[3] = system: Candida albicans and staphylococci; conditions: cited from earlier work

In the case of `O=C1Nc2ccccc2/C1=C1/Nc2ccccc2C1=O` [Indirubin], the AhR agonist activity [1] is listed as “known agonist”.

In the case of `O=Cc1c(Cc2c[nH]c3ccccc23)[nH]c2ccccc12` [Malassezin, 2-(1H-indol-3-ylmethyl)-1H-indole-3-carbaldehyde], the “UV-protective properties (conclusion of study)” value (UV-induced erythema) is given as “UV-protective properties” and the AhR agonist activity [1] is given as “known agonist”.

For `O=C(c1c[nH]c2ccccc12)c1nccc2c1[nH]c1ccccc12` [Pityriacitrin], the “sun protection factor (SPF)” value ([2]; pityriacitrin concentration 1.25%) is given as 1.4, the “sun protection factor (SPF)” value ([2]; pityriacitrin concentration 2.5%) is given as 1.5 and the “sun protection factor (SPF)” value ([2]; pityriacitrin concentration 5%) is given as 1.7. For the same compound, the “UV protective effect overall” value ([2]; in vitro and in vivo test methods in humans) was “very weak”, the “UV-protective effect on microflora” value ([3]; Candida albicans and staphylococci) was “UV-protective effect” and the toxicity to microflora ([3]; ranges tested) was “no toxicity”.
